Laboratory results published in patent US20090312349A1, “ANTI-INFLAMMATORY MEDICAMENTS” (priority 2004, published 2009).
Blank lines part the entries; values can stand above or below the molecule they belong to.

How the values were obtained:
p38 MAP kinase = p38 MAP kinase (Homo sapiens, UniProt Q16539); assay: P38 MAP kinase binding assay (fluorescence competition with SKF 86002); details: time-dependent if the IC50 values decrease with the reaction time (more than two-fold in four hours)
Experimental: The reaction was initiated by addition of the enzyme. […] By comparison of rfu (relative fluorescence unit) values with that of a control (in the absence of an inhibitor), the percentage of inhibition at each concentration of the inhibitor was calculated. IC50 value for the inhibitor was calculated from the % inhibition values obtained at a range of concentrations of the inhibitor using Prism. When time-dependent inhibition was assessed, the plate was read at multiple reaction times such as 0.5, 1, 2, 3, 4 and 6 hours. The IC50 values were calculated at the each time point. An inhibition was assigned as time-dependent if the IC50 values decrease with the reaction time (more than two-fold in four hours).

[1] = tested on: TNF-alpha release from human peripheral blood mononuclear leukocytes; assay: Human peripheral blood mononuclear leukocyte cell assay (LPS-induced TNF-alpha release, ELISA); type: cell-based; details: 25 ng/mL LPS, 16 hours, read-out: IC50, uM (inhibition of TNF-alpha release)
Experimental: The quantity of LPS-induced tumor necrosis factor-alpha (TNF-alpha) cytokine release is measured by a commercially available Enzyme-Linked Immunosorbent Assay (ELISA) kit. Test compounds are evaluated for their ability to inhibit TNF-alpha release.

B-Raf(V599E) kinase = B-Raf(V599E) kinase (Homo sapiens, UniProt P15056, V600E); assay: biochemical; details: for IC50: Method B2, construct 2; for inhibition at 10 µM / inhibition at 1 µM: read-out: Results, % @ concentration μM
Experimental: The test compounds were incubated with the reaction mixture at 30° C. for 2 h. […] The reaction rate was calculated using the 1.5 h to 2.5 h time frame. […] IC50 values were calculated from a series of percent inhibition values determined at a range of inhibitor concentrations using software routines as implemented in the GraphPad Prism software package.
Same as assay B1 except that (1) construct 2 was employed at a nominal concentration of 2 nM (2) the reaction was pre-incubated at 30° C. for 1 h prior to initiation with ATP (3) a reading time frame of 0.5 h to 1.5 h.

[2] = target: T1, phospho p-38 alpha kinase (Homo sapiens, UniProt Q16539); assay: P-38 alpha kinase assay (spectrophotometric, pyruvate kinase/lactate dehydrogenase coupled); type: biochemical; details: Table 5; for IC50: assay not named, read-out: uM
T1 construct: purchased Panvera

[3] = target: phosphorylated p-38-alpha kinase (Homo sapiens, UniProt Q16539); assay: P-38 alpha kinase assay P1; type: biochemical; details: Method P1; for IC50: 2 h pre-incubation before ATP
KDR kinase [4] = target: T2, KDR kinase (Homo sapiens, UniProt P35968, DEL940-989/E990V); assay: KDR kinase assay K1; type: biochemical; details: read-out: Results, % @ concentration μM, Method K1; @ 10 μM
Experimental: (§1) IC50 values were calculated from a series of percent inhibition values determined at a range of inhibitor concentrations using software routines as implemented in the GraphPad Prism software package.

Abl kinase [5] = target: T3, Abl kinase (Homo sapiens, UniProt P00519); assay: Abl kinase assay A1; type: biochemical; details: read-out: Results, % @ concentration μM, Method A1; @ 1 μM
T3 sequence (P00519 229-512): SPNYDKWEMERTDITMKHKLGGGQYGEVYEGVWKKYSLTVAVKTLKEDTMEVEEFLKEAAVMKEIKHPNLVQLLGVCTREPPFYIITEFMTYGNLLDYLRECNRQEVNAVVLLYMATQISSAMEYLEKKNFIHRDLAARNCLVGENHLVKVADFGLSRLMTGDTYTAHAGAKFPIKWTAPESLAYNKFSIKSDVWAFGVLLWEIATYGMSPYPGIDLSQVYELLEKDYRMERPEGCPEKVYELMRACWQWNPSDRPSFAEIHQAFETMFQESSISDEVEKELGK
Experimental: as §1

KDR kinase [6] = target: T2, KDR kinase; assay: KDR kinase assay K2; details: read-out: Results, % @ concentration μM
Abl kinase [7] = target: T3, Abl kinase; assay: Abl kinase assay A2; type: biochemical; details: Method A2; 2 h pre-incubation, 0.5 mM ATP
Experimental: as §1

p38 MAP kinase, sequence (Q16539 whole entry): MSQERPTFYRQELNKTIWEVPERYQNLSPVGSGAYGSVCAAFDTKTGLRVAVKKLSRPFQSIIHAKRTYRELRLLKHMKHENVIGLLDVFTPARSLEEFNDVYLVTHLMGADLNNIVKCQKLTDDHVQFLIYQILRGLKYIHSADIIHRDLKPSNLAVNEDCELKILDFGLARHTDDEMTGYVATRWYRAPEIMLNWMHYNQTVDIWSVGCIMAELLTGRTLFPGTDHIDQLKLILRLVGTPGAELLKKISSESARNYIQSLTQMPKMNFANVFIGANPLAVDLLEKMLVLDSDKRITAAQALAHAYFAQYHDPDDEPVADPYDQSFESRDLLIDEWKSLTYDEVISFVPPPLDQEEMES
T1 sequence (Q16539 whole entry): as above
phosphorylated p-38-alpha kinase, sequence (Q16539 1-360 isoform Q16539-2): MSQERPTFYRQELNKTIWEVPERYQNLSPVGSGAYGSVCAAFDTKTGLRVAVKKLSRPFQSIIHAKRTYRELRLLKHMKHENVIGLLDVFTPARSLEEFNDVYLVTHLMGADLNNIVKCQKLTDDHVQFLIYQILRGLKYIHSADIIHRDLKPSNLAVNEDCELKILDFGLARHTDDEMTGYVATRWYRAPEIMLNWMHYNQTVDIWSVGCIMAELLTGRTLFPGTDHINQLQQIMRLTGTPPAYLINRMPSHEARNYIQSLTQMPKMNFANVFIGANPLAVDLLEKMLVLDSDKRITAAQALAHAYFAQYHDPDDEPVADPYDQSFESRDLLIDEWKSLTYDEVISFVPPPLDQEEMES
B-Raf(V599E) kinase, sequence (P15056 433-726 V600E): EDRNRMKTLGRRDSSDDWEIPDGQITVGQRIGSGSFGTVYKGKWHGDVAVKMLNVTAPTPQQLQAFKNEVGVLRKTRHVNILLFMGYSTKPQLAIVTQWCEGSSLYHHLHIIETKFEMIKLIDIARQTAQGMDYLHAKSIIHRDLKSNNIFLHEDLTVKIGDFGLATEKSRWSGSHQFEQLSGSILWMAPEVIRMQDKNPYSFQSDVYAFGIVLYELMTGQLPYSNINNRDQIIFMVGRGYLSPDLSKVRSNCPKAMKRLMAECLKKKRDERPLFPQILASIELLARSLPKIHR
T2 sequence (P35968 with tags, fused parts or gaps DEL940-989/E990V): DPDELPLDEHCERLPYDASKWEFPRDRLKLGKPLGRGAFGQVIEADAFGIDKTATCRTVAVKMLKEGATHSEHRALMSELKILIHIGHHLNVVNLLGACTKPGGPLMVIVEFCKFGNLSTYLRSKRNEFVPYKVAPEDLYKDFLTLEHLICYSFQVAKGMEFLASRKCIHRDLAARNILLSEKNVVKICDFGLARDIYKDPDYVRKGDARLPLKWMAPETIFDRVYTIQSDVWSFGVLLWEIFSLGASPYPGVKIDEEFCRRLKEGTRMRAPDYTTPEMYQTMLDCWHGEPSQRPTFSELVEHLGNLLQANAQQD

SMILES: CC1(C(=O)O)CC2(C)CC(C)(C1)C(=O)N(Cc1cccc(-n3nc(C(C)(C)C)cc3NC(=O)Nc3cccc4ccccc34)c1)C2=O (stereo not shown) [Example 11]
Time-dependent (p38 MAP kinase): No

SMILES: CC1(C(=O)O)CC2(C)CC(C)(C1)C(=O)N(Cc1cccc(-n3nc(C(C)(C)C)cc3NC(=O)Nc3ccc(Cl)cc3)c1)C2=O (stereo not shown) [Example 12]
Time-dependent (p38 MAP kinase): No

SMILES: O=C(O)Cc1cccc(-n2nc(-c3ccsc3)cc2NC(=O)Nc2cccc(Cl)c2Cl)c1 [Example 436, 2-(3-(5-(3-(2,3-dichlorophenyl)ureido)-3-(thiophen-3-yl)-1H-pyrazol-1-yl)phenyl)acetic acid]
IC50 (B-Raf(V599E) kinase): 3.7 µM
% @ concentration, uM ([2]; @ 0.1 uM): 16%
% @ concentration, uM ([2]; @ 1 uM): 41%
IC50 [3]: 0.007 µM

SMILES: O=C(Cc1cccc(-n2nc(-c3ccccc3F)cc2NC(=O)Nc2cccc(Cl)c2Cl)c1)NCC(O)CO (stereo not shown) [Example 459, 1-(2,3-dichlorophenyl)-3-(1-(3-(2-(2,3-dihydroxypropylamino)-2-oxoethyl)phenyl)-3-(2-fluorophenyl)-1H-pyrazol-5-yl)urea]
inhibition at 10 µM (KDR kinase [4]): 33%
inhibition at 10 µM (B-Raf(V599E) kinase): 5%
IC50 [2]: 0.02 µM
IC50 [3]: 0.005 µM

SMILES: O=C(Cc1ccc(-n2nc(-c3ccccc3F)cc2NC(=O)Nc2cccc(Cl)c2Cl)cc1)NCC(O)CO (stereo not shown) [Example 471, 1-(2,3-dichlorophenyl)-3-(1-(4-(2-(2,3-dihydroxypropylamino)-2-oxoethyl)phenyl)-3-(2-fluorophenyl)-1H-pyrazol-5-yl)urea]
inhibition at 1 µM (Abl kinase [5]): 14%
inhibition at 10 µM (B-Raf(V599E) kinase): 39%
IC50 [3]: 0.016 µM

SMILES: O=C(Cc1ccc(-n2nc(-c3ccccc3F)cc2NC(=O)Nc2cccc(Cl)c2Cl)cc1)NC(CO)CO [Example 473, 1-(2,3-dichlorophenyl)-3-(1-(4-(2-(1,3-dihydroxypropan-2-ylamino)-2-oxoethyl)phenyl)-3-(2-fluorophenyl)-1H-pyrazol-5-yl)urea]
inhibition at 10 µM (B-Raf(V599E) kinase): 4%
IC50 [2]: 0.004 µM
IC50 [3]: 0.03 µM

SMILES: O=C(Cc1cccc(-n2nc(C3CCCC3)cc2NC(=O)Nc2cccc(Cl)c2Cl)c1)NCCO [Example 488, 1-(3-cyclopentyl-1-(3-(2-(2-hydroxyethylamino)-2-oxoethyl)phenyl)-1H-pyrazol-5-yl)-3-(2,3-dichlorophenyl)urea]
inhibition at 1 µM (B-Raf(V599E) kinase): 21%
IC50 [2]: 0.54 µM
inhibition at 1 µM (KDR kinase [6]): 41%
IC50 [3]: 0.007 µM

SMILES: Cc1ccc(NC(=O)Nc2cc(C(C)(C)C)nn2-c2cccc(CC(N)=O)c2)cc1Nc1ncccn1 [Example 515, 1-(1-(3-(2-amino-2-oxoethyl)phenyl)-3-tert-butyl-1H-pyrazol-5-yl)-3-(4-methyl-3-(pyrimidin-2-ylamino)phenyl)urea]
inhibition at 1 µM (B-Raf(V599E) kinase): 27%
Results, % @ concentration μM ([3]; @ 1.0 μM): 90% @1.0

Continued, values first:

Time-dependent (p38 MAP kinase): Yes
SMILES: CC(C)(C)c1cc(NC(=O)Nc2cccc3ccccc23)n(-c2cccc(CC(=O)N3CCOCC3)c2)n1 [Example 21, 1-{3-t-butyl-1-[3-(2-morpholino-2-oxoethyl)phenyl]-1H-pyrazol-5-yl}-3-(naphthalene-1-yl)urea]

Time-dependent (p38 MAP kinase): No
SMILES: CC(C)(C)c1cc(NC(=O)Nc2cccc3ccccc23)n(-c2ccc(CN)cc2)n1 [Example 45, 1-{3-t-butyl-1-[4-(aminomethyl)phenyl]-1H-pyrazol-5-yl}-3-(naphthalen-1-yl)urea]

IC50 [1]: 3.49 µM
SMILES: CCOC(=O)Cc1cccc(-n2nc(C(C)(C)C)cc2NC(=O)Nc2ccc3c(c2)OCO3)c1 [Example 296, ethyl 2-(3-{5-[3-(benzo[d][1,3]dioxol-5-yl)ureido]-3-t-butyl-1H-pyrazol-1-yl}phenyl)-acetate]

IC50 [1]: 4.78 µM
SMILES: CN(C)CCc1cccc(-n2nc(C(C)(C)C)cc2NC(=O)Nc2ccc3c(c2)OCO3)c1 [Example 300, 1-(benzo[d][1,3]dioxol-5-yl)-3-{3-t-butyl 1-(3-[2-(dimethylamino)ethyl]phenyl}-1H-pyrazol-5-yl)urea]

IC50 (Abl kinase [7]): 0.0022 µM
IC50 (B-Raf(V599E) kinase): 0.075 µM
SMILES: Cc1ccc(NC(=O)Nc2cc(C(C)(C)C)nn2-c2cccc(CC(=O)NCC(O)CO)c2)cc1Nc1nccc(-c2cccnc2)n1 (stereo not shown) [Example 517, 1-(3-tert-butyl-1-(3-(2-(2,3-dihydroxypropylamino)-2-oxoethyl)phenyl)-1H-pyrazol-5-yl)-3-(4-methyl-3-(4-(pyridin-3-yl)pyrimidin-2-ylamino)phenyl)urea]
